Holding throughout (format): cell-based, human
The subject of one test is SN12C. Nature of the test: NCI60 one-dose screen, SN12C. The following applies: SN12C (Renal Cancer); NCI 60 one-dose, 10^-5 M. Here is the method:
(§1) Anti-cancer activity screening of all compounds was performed by the NCI Developmental Therapeutics Program (DTP) through their NCI60 screening initiative. Assay details can be found at the website dtp.cancer.gov/discovery_development/nci-60/methodology.htm. Information from this website is reproduced here for convenience.
(§2) As of early 2007 all compounds submitted to the NCI 60 Cell screen are tested initially at a single high dose (10^-5 M) in the full NCI 60 cell panel. Only compounds which satisfy pre-determined threshold inhibition criteria in a minimum number of cell lines will progress to the full 5-dose assay. The threshold inhibition criteria for progression to the 5-dose screen was selected to efficiently capture compounds with anti-proliferative activity based on careful analysis of historical DTP screening data. The threshold criteria may be updated as additional data becomes available.
(§3) The One-dose data will be reported as a mean graph of the percent growth of treated cells and will be similar in appearance to mean graphs from the 5-dose assay. […]
(§4) Following drug addition, the plates are incubated for an additional 48 h at 37° C., 5% CO2, 95% air, and 100% relative humidity. […] Bound stain is subsequently solubilized with 10 mM trizma base, and the absorbance is read on an automated plate reader at a wavelength of 515 nm. […]

The next test has as its system SK-OV-3. Nature of the test: NCI60 one-dose screen, SK-OV-3. The following applies: SK-OV-3 (Ovarian Cancer); NCI 60 one-dose, 10^-5 M. Here is the method: as §1, §2, §3, §4
For a further test, the system named is CCRF-CEM. The test can be described thus: NCI60 one-dose screen, CCRF-CEM. To be noted: CCRF-CEM (Leukemia); NCI 60 one-dose, 10^-5 M. The method, then:
as §1, §2, §3, §4

A further test relates to SK-MEL-28. Nature of the test: NCI60 one-dose screen, SK-MEL-28. The following applies: SK-MEL-28 (Melanoma); NCI 60 one-dose, 10^-5 M. Here is the method:
as §1, §2, §3, §4

Another test has as its system MOLT-4. Nature of the test: NCI60 one-dose screen, MOLT-4. The following applies: MOLT-4 (Leukemia); NCI 60 one-dose, 10^-5 M. Here is the method: as §1, §2, §3, §4
Another test concerns KM12. The test can be described thus: NCI60 one-dose screen, KM12. To be noted: KM12 (Colon Cancer); NCI 60 one-dose, 10^-5 M. The method, then:
as §1, §2, §3, §4

A further test relates to HCC-2998. Nature of the test: NCI60 one-dose screen, HCC-2998. To be noted: HCC-2998 (Colon Cancer); NCI 60 one-dose, 10^-5 M. The method, then: as §1, §2, §3, §4
A further test deals with RPMI-8226. Nature of the test: NCI60 one-dose screen, RPMI-8226. To be noted: RPMI-8226 (Leukemia); NCI 60 one-dose, 10^-5 M. The method, then: as §1, §2, §3, §4
The test system of the next test is SNB-75. Nature of the test: NCI60 one-dose screen, SNB-75. To be noted: SNB-75 (CNS Cancer); NCI 60 one-dose, 10^-5 M. Here is the method:
as §1, §2, §3, §4

In the next test the test system is BT-549. Nature of the test: NCI60 one-dose screen, BT-549. To be noted: BT-549 (Breast Cancer); NCI 60 one-dose, 10^-5 M. Here is the method: as §1, §2, §3, §4
Another test deals with NCI-H460. Nature of the test: NCI60 one-dose screen, NCI-H460. The following applies: NCI-H460 (Non-Small Cell Lung Cancer); NCI 60 one-dose, 10^-5 M. Here is the method:
as §1, §2, §3, §4

Another test concerns SF-268. The test can be described thus: NCI60 one-dose screen, SF-268. To be noted: SF-268 (CNS Cancer); NCI 60 one-dose, 10^-5 M. Here is the method:
as §1, §2, §3, §4

In the next test the test system is HOP-92. The test can be described thus: NCI60 one-dose screen, HOP-92. The following applies: HOP-92 (Non-Small Cell Lung Cancer); NCI 60 one-dose, 10^-5 M. Here is the method: as §1, §2, §3, §4
The next test deals with K-562. Nature of the test: NCI60 one-dose screen, K-562. The following applies: K-562 (Leukemia); NCI 60 one-dose, 10^-5 M. The method, then: as §1, §2, §3, §4
In the next test the test system is M14. Nature of the test: NCI60 one-dose screen, M14. The following applies: M14 (Melanoma); NCI 60 one-dose, 10^-5 M. Here is the method:
as §1, §2, §3, §4

In another test the test system is HS 578T. Nature of the test: NCI60 one-dose screen, HS 578T. The following applies: HS 578T (Breast Cancer); NCI 60 one-dose, 10^-5 M. The method, then:
as §1, §2, §3, §4

The test system of another test is SW-620. The test can be described thus: NCI60 one-dose screen, SW-620. The following applies: SW-620 (Colon Cancer); NCI 60 one-dose, 10^-5 M. The method, then:
as §1, §2, §3, §4

A further test deals with HCT-15. The test can be described thus: NCI60 one-dose screen, HCT-15. The following applies: HCT-15 (Colon Cancer); NCI 60 one-dose, 10^-5 M. The method, then: as §1, §2, §3, §4

Experimental findings from US12252492B2, “Substituted fused pyrrolo-diazepinones and uses thereof” (Northwestern University, priority 2018, dated 2025) are described below.

On to `CC(=O)N1c2ccccc2NC2=C(C(=O)N(C)C2(C)C)C1c1ccccc1` (stereo not drawn) [NUCC-60872], for which the “Growth Percent” value in the test with SN12C was determined as 40.74%; in the test on SK-OV-3 it was 55.42%; with CCRF-CEM, 20.66%; in the test with SK-MEL-28, 56.02%; with MOLT-4, 33.27%; with KM12 it was 19.79%. Also, the “Growth Percent” value with HCC-2998 is listed as 60.81%; in the test on RPMI-8226 it was 12.61%; in the test with SNB-75 it was −3.29%; with BT-549, 69.46%; in the test with NCI-H460, 21.87%; in the test on SF-268, 42.99%. Further, the “Growth Percent” value with HOP-92 is given as 37.54%; with K-562, 16.57%; with M14, 21.48%; in the test on HS 578T it was 20.42%; in the test on SW-620, 24.24%; in the test on HCT-15 it was 93.83%.
Take `CC(=O)N1c2ccccc2NC2=C(C(=O)N(Cc3ccccc3)C2(C)C)C1c1ccco1` (stereo not drawn) [NUCC-608455]: the “Growth Percent” value was determined as 35.91% with SN12C; 22.71% in the test on SK-OV-3; 24.15% in the test on CCRF-CEM; 57.26% with SK-MEL-28; 28.58% with MOLT-4; 14.83% in the test with KM12. Further, the “Growth Percent” value is 3.73% with HCC-2998; 23.43% with RPMI-8226; 16.83% in the test with SNB-75; 47.62% in the test with BT-549; 4.83% in the test with NCI-H460; 42.68% in the test on SF-268. The “Growth Percent” value in the test on HOP-92 is 21.07%; with K-562, 12.60%; in the test on M14, −13.58%; in the test on HS 578T, 10.67%; in the test on SW-620 it was 21.68%; in the test with HCT-15, 15.65%.
